# Assay results taken from patent US9771360B2, “Cyano-substituted imidazo[1,2-A]pyridinecarboxamides and their use” (Bayer Pharma Aktiengesellschaft, priority 2014, dated 2017).
# Biological target: T1, recombinant guanylate cyclase reporter cell line (Rattus norvegicus, UniProt P19686+P20595)
# T1 construct: expressed in transfected cells
# T1 sequence (P20595 1-619): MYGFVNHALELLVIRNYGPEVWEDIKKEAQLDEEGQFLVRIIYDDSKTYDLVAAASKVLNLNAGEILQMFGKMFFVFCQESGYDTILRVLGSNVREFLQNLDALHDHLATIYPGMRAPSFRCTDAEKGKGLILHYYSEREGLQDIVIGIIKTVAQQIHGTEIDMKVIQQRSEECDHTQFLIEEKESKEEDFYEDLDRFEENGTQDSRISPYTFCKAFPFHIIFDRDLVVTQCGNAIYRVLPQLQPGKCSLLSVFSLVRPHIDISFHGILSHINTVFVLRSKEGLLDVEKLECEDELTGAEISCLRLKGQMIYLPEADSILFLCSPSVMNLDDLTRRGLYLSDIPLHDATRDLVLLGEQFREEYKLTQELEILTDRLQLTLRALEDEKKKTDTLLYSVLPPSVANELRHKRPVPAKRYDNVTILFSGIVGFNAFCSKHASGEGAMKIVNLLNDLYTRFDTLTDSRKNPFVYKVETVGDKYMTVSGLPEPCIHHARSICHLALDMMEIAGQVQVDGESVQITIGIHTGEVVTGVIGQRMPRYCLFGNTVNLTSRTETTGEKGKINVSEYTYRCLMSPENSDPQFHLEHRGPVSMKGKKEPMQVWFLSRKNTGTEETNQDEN
# T1 sequence (P19686 1-690): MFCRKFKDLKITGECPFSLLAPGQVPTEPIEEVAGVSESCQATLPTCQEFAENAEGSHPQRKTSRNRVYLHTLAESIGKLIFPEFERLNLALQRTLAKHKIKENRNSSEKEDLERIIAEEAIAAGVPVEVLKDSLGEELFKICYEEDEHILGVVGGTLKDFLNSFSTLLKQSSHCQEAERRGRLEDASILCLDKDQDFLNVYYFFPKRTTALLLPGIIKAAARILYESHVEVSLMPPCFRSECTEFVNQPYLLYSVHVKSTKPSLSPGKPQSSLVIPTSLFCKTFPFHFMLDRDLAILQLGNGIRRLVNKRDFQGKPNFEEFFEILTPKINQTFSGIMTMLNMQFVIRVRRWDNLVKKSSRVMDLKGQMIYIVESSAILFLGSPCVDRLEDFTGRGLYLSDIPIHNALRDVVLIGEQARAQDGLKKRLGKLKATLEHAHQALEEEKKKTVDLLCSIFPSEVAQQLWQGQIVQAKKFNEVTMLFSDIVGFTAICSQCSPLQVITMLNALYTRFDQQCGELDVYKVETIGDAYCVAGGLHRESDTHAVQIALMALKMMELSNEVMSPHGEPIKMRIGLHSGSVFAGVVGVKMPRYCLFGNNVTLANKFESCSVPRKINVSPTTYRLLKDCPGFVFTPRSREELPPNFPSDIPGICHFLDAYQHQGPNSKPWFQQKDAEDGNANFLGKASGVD
# Assay: Effect on a recombinant guanylate cyclase reporter cell line (B-2)
# Assay type: cell-based
# Settings: MEC = minimum effective concentration; in some cases mean values from individual determinations
# Method: B-2. Effect on a Recombinant Guanylate Cyclase Reporter Cell Line
# The cellular activity of the compounds according to the invention is determined using a recombinant guanylate cyclase reporter cell line, as described in F. Wunder et al., Anal. Biochem. 339, 104-112 (2005).
# Representative MEC values (MEC=minimum effective concentration) for the compounds of the invention are shown in the table below (in some cases as mean values from individual determinations): […]
row,Structure (SMILES),MEC
1,"Cc1cc(OCc2c(F)cccc2F)c2nc(C)c(C(=O)NCC(N)CCCC#N)n2c1 (single isomer, unassigned) [Example 47, ent-N-(2-Amino-5-cyanopentyl)-8-[(2,6-difluorobenzyl)oxy]-2,6-dimethylimidazo[1,2-a]pyridine-3-carboxamide]",1 µM
2,"Cc1nc2c(OCc3c(F)cccc3F)cc(Cl)cn2c1C(=O)NC(C#N)c1ccc(Cl)cc1 (racemic) [Example 29, rac-6-chloro-N-[(4-chlorophenyl)(cyano)methyl]-8-[(2,6-difluorobenzyl)oxy]-2-methylimidazo[1,2-a]pyridine-3-carboxamide]",1 µM
3,"Cc1cc(OCCC(C(F)(F)F)C(F)(F)F)c2nc(C)c(C(=O)NC(C#N)c3ccc(Cl)cc3)n2c1 (racemic) [Example 23, rac-N-[(4-chlorophenyl)(cyano)methyl]-2,6-dimethyl-8-[4,4,4-trifluoro-3-(trifluoromethyl)butoxy]imidazo[1,2-a]pyridine-3-carboxamide]",3 µM
4,"Cc1nc2c(OCc3ncccc3F)cccn2c1C(=O)NC(C#N)c1ccc(Cl)cc1 (racemic) [Example 21, rac-N-[(4-chlorophenyl)(cyano)methyl]-8-[(3-fluoropyridin-2-yl)methoxy]-2-methylimidazo[1,2-a]pyridine-3-carboxamide]",10 µM
5,"Cc1cc(OCc2c(F)cccc2F)c2nc(C)c(C(=O)NCC(N)CCCC#N)n2c1 (single isomer, unassigned) [Example 46, ent-N-(2-Amino-5-cyanopentyl)-8-[(2,6-difluorobenzyl)oxy]-2,6-dimethylimidazo[1,2-a]pyridine-3-carboxamide]",3 µM
6,"Cc1cc(OCc2c(F)cccc2F)c2nc(C)c(C(=O)NCC(N)CCCC#N)n2c1 (racemic) [Example 45, rac-N-(2-Amino-5-cyanopentyl)-8-[(2,6-difluorobenzyl)oxy]-2,6-dimethylimidazo[1,2-a]pyridine-3-carboxamide]",2 µM
7,"COc1ccc(NC(=O)c2c(C)nc3c(OCc4c(F)cccc4F)cc(C)cn23)cc1C#N [Example 37, N-(3-cyano-4-methoxyphenyl)-8-[(2,6-difluorobenzyl)oxy]-2,6-dimethylimidazo[1,2-a]pyridine-3-carboxamide]",0.3 µM
8,"Cc1cc(OCc2c(F)cccc2F)c2nc(C)c(C(=O)NC(CN)CC#N)n2c1 (racemic) [Example 39, rac-N-(1-Amino-3-cyanopropan-2-yl)-8-[(2,6-difluorobenzyl)oxy]-2,6-dimethylimidazo[1,2-a]pyridine-3-carboxamide]",1 µM
9,"N#CC(NC(=O)c1cnc2c(OCc3c(F)cccc3F)cccn12)c1ccc(Cl)cc1 (racemic) [Example 18, rac-N-[(4-chlorophenyl)(cyano)methyl]-8-[(2,6-difluorobenzyl)oxy]imidazo[1,2-a]pyridine-3-carboxamide]",10 µM
10,"Cc1cc(OCc2c(F)cccc2F)c2nc(C)c(C(=O)NC(C)(C)C#N)n2c1 [Example 3, N-(2-cyanopropan-2-yl)-8-[(2,6-difluorobenzyl)oxy]-2,6-dimethylimidazo[1,2-a]pyridine-3-carboxamide]",0.1 µM
11,"COc1ccc(F)c(COc2cc(C)cn3c(C(=O)NC(C#N)c4ccc(Cl)cc4)c(C)nc23)c1F (racemic) [Example 22, rac-N-[(4-chlorophenyl)(cyano)methyl]-8-[(2,6-difluoro-3-methoxybenzyl)oxy]-2,6-dimethylimidazo[1,2-a]pyridine-3-carboxamide]",3 µM
12,"Cc1cc(OCc2c(F)cccc2F)c2nc(C)c(C(=O)NC(C)(C#N)C3CC3)n2c1 (racemic) [Example 6, rac-N-(1-cyano-1-cyclopropylethyl)-8-[(2,6-difluorobenzyl)oxy]-2,6-dimethylimidazo[1,2-a]pyridine-3-carboxamide]",0.1 µM
13,"COCC(C)(C#N)NC(=O)c1c(C)nc2c(OCc3c(F)cccc3F)cc(C)cn12 (racemic) [Example 7, rac-N-(2-cyano-1-methoxypropan-2-yl)-8-[(2,6-difluorobenzyl)oxy]-2,6-dimethylimidazo[1,2-a]pyridine-3-carboxamide]",0.3 µM
14,"Cc1cc(OCc2c(F)cccc2F)c2nc(C)c(C(=O)Nc3ccc(CC#N)cc3)n2c1 [Example 36, N-[4-(cyanomethyl)phenyl]-8-[(2,6-difluorobenzyl)oxy]-2,6-dimethylimidazo[1,2-a]pyridine-3-carboxamide]",1 µM
15,"Cc1cc(OCc2c(F)cccc2F)c2nc(C)c(C(=O)NC3(C#N)CC3)n2c1 [Example 4, N-(1-cyanocyclopropyl)-8-[(2,6-difluorobenzyl)oxy]-2,6-dimethylimidazo[1,2-a]pyridine-3-carboxamide]",0.3 µM
16,"Cc1cc(OCc2c(F)cccc2F)c2nc(C)c(C(=O)NC3(C#N)CCC3)n2c1 [Example 5, N-(1-cyanocyclobutyl)-8-[(2,6-difluorobenzyl)oxy]-2,6-dimethylimidazo[1,2-a]pyridine-3-carboxamide]",0.03 µM
17,"Cc1nc2c(OCC3CCCCC3)cccn2c1C(=O)NC(C#N)c1ccc(Cl)cc1 (racemic) [Example 20, rac-N-[(4-chlorophenyl)(cyano)methyl]-8-(cyclohexylmethoxy)-2-methylimidazo[1,2-a]pyridine-3-carboxamide]",1 µM
18,"CCc1nc2c(OCc3c(F)cccc3F)cc(C)cn2c1C(=O)NC(C#N)c1ccc(Cl)cc1 (racemic) [Example 27, rac-N-[(4-chlorophenyl)(cyano)methyl]-8-[(2,6-difluorobenzyl)oxy]-2-ethyl-6-methylimidazo[1,2-a]pyridine-3-carboxamide]",0.3 µM
